Test results published in PubChem BioAssay (NCI).
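Growth conditions: 96-well plates. Treatment: test compound, 48 hours, 5 concentrations. Analysis: linear interpolation between bracketing concentrations; unreached endpoints set to highest concentration. At the GI50, growth is halved. TGI: total growth inhibition.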

Experiments:
Test in all cases: NCI tumour cell line growth inhibition, 48 h
UO-31 renal = tested on: UO-31 renal
A498 renal = tested on: A498 renal
M14 melanoma = tested on: M14 melanoma
NCI/ADR-RES ovarian = tested on: NCI/ADR-RES ovarian
UACC-62 melanoma = tested on: UACC-62 melanoma
CAKI-1 renal = tested on: CAKI-1 renal
NCI-H226 lung = tested on: NCI-H226 lung
LOX IMVI melanoma = tested on: LOX IMVI melanoma
MCF7 breast = tested on: MCF7 breast
HOP-62 NSCLC = tested on: HOP-62 NSCLC
SF-539 CNS = tested on: SF-539 CNS
RXF 393 renal = tested on: RXF 393 renal
SNB-19 CNS = tested on: SNB-19 CNS
SF-295 CNS = tested on: SF-295 CNS
HT29 colon = tested on: HT29 colon
PC-3 prostate = tested on: PC-3 prostate
BT-549 breast = tested on: BT-549 breast
RPMI-8226 leukemia = tested on: RPMI-8226 leukemia
HCT-15 colon = tested on: HCT-15 colon
HS 578T breast = tested on: HS 578T breast
SK-MEL-28 melanoma = tested on: SK-MEL-28 melanoma
MDA-MB-231 breast = tested on: MDA-MB-231 breast
TK-10 renal = tested on: TK-10 renal
MOLT-4 leukemia = tested on: MOLT-4 leukemia
NCI-H522 lung = tested on: NCI-H522 lung
SK-MEL-2 melanoma = tested on: SK-MEL-2 melanoma
OVCAR-3 ovarian = tested on: OVCAR-3 ovarian
IGROV1 ovarian = tested on: IGROV1 ovarian
T-47D breast = tested on: T-47D breast
SF-268 CNS = tested on: SF-268 CNS
HCC-2998 colon = tested on: HCC-2998 colon
HCT-116 colon = tested on: HCT-116 colon
SK-OV-3 ovarian = tested on: SK-OV-3 ovarian
786-0 renal = tested on: 786-0 renal
SW-620 colon = tested on: SW-620 colon
MALME-3M melanoma = tested on: MALME-3M melanoma
HOP-92 NSCLC = tested on: HOP-92 NSCLC
OVCAR-8 ovarian = tested on: OVCAR-8 ovarian
COLO 205 colon = tested on: COLO 205 colon
A549 NSCLC = tested on: A549 NSCLC
OVCAR-4 ovarian = tested on: OVCAR-4 ovarian
EKVX NSCLC = tested on: EKVX NSCLC
NCI-H23 lung = tested on: NCI-H23 lung
SN12C renal = tested on: SN12C renal
U251 CNS = tested on: U251 CNS
KM12 colon = tested on: KM12 colon
SK-MEL-5 melanoma = tested on: SK-MEL-5 melanoma
SNB-75 CNS = tested on: SNB-75 CNS
K-562 leukemia = tested on: K-562 leukemia
DU-145 prostate = tested on: DU-145 prostate
UACC-257 melanoma = tested on: UACC-257 melanoma
OVCAR-5 ovarian = tested on: OVCAR-5 ovarian
NCI-H460 lung = tested on: NCI-H460 lung
CCRF-CEM leukemia = tested on: CCRF-CEM leukemia

`COc1ccc(/C(COc2ccc3c(c2)oc(=O)c2cc(OC)ccc23)=N/O)cc1` was tested, and the GI50 (UO-31 renal) was 17.1 µM, the TGI (UO-31 renal) was over 100 µM and the GI50 (A498 renal) was 3.22 µM. The TGI (A498 renal) was 52.2 µM, the GI50 (M14 melanoma) was 4.29 µM and the TGI (M14 melanoma) was over 100 µM. It also gave a GI50 (NCI/ADR-RES ovarian) of 2.96 µM, a TGI (NCI/ADR-RES ovarian) of 9.76 µM and a GI50 (UACC-62 melanoma) of 3.94 µM. It also gave a TGI (UACC-62 melanoma) of over 100 µM, a GI50 (CAKI-1 renal) of 6.4 µM and a TGI (CAKI-1 renal) of over 100 µM. For the same compound, the GI50 (NCI-H226 lung) was 41.7 µM, the TGI (NCI-H226 lung) was over 100 µM and the GI50 (LOX IMVI melanoma) was 8.12 µM. For the same compound, the TGI (LOX IMVI melanoma) was 67.2 µM, the GI50 (MCF7 breast) was 4.16 µM and the TGI (MCF7 breast) was over 100 µM. The GI50 (HOP-62 NSCLC) was 8.86 µM, the TGI (HOP-62 NSCLC) was over 100 µM and the GI50 (SF-539 CNS) was 8.33 µM. The TGI (SF-539 CNS) was 51.3 µM, the GI50 (RXF 393 renal) was 26.8 µM and the TGI (RXF 393 renal) was over 100 µM. For the same compound, the GI50 (SNB-19 CNS) was 4.34 µM, the TGI (SNB-19 CNS) was over 100 µM and the GI50 (SF-295 CNS) was 6.2 µM. The TGI (SF-295 CNS) was over 100 µM, the GI50 (HT29 colon) was 3.72 µM and the TGI (HT29 colon) was 74.8 µM. For the same compound, the GI50 (PC-3 prostate) was 7.28 µM, the TGI (PC-3 prostate) was over 100 µM and the GI50 (BT-549 breast) was 15 µM. It also gave a TGI (BT-549 breast) of over 100 µM, a GI50 (RPMI-8226 leukemia) of 5.44 µM and a TGI (RPMI-8226 leukemia) of over 100 µM. For the same compound, the GI50 (HCT-15 colon) was 5.16 µM, the TGI (HCT-15 colon) was over 100 µM and the GI50 (HS 578T breast) was 10.6 µM. For the same compound, the TGI (HS 578T breast) was over 100 µM, the GI50 (SK-MEL-28 melanoma) was 4.86 µM and the TGI (SK-MEL-28 melanoma) was over 100 µM. The GI50 (MDA-MB-231 breast) was 10.8 µM, the TGI (MDA-MB-231 breast) was over 100 µM and the GI50 (TK-10 renal) was 8.14 µM. For the same compound, the TGI (TK-10 renal) was over 100 µM, the GI50 (MOLT-4 leukemia) was 5.86 µM and the TGI (MOLT-4 leukemia) was over 100 µM. For the same compound, the GI50 (NCI-H522 lung) was 3.55 µM, the TGI (NCI-H522 lung) was 19.1 µM and the GI50 (SK-MEL-2 melanoma) was 15.2 µM. For the same compound, the TGI (SK-MEL-2 melanoma) was over 100 µM, the GI50 (OVCAR-3 ovarian) was 3.68 µM and the TGI (OVCAR-3 ovarian) was over 100 µM. For the same compound, the GI50 (IGROV1 ovarian) was 4.87 µM, the TGI (IGROV1 ovarian) was over 100 µM and the GI50 (T-47D breast) was 6.9 µM. It also gave a TGI (T-47D breast) of over 100 µM, a GI50 (SF-268 CNS) of 8.33 µM and a TGI (SF-268 CNS) of over 100 µM. For the same compound, the GI50 (HCC-2998 colon) was 7.64 µM, the TGI (HCC-2998 colon) was over 100 µM and the GI50 (HCT-116 colon) was 4.18 µM. It also gave a TGI (HCT-116 colon) of over 100 µM, a GI50 (SK-OV-3 ovarian) of 37.4 µM and a TGI (SK-OV-3 ovarian) of over 100 µM. For the same compound, the GI50 (786-0 renal) was 14.8 µM, the TGI (786-0 renal) was over 100 µM and the GI50 (SW-620 colon) was 4.34 µM. For the same compound, the TGI (SW-620 colon) was over 100 µM, the GI50 (MALME-3M melanoma) was 65.7 µM and the TGI (MALME-3M melanoma) was over 100 µM. For the same compound, the GI50 (HOP-92 NSCLC) was 80.9 µM, the TGI (HOP-92 NSCLC) was over 100 µM and the GI50 (OVCAR-8 ovarian) was 11.4 µM. The TGI (OVCAR-8 ovarian) was over 100 µM, the GI50 (COLO 205 colon) was 3.75 µM and the TGI (COLO 205 colon) was over 100 µM. It also gave a GI50 (A549 NSCLC) of 7.41 µM, a TGI (A549 NSCLC) of over 100 µM and a GI50 (OVCAR-4 ovarian) of 24.7 µM. For the same compound, the TGI (OVCAR-4 ovarian) was over 100 µM, the GI50 (EKVX NSCLC) was 23.7 µM and the TGI (EKVX NSCLC) was over 100 µM. For the same compound, the GI50 (NCI-H23 lung) was 20.5 µM, the TGI (NCI-H23 lung) was over 100 µM and the GI50 (SN12C renal) was 13.6 µM. For the same compound, the TGI (SN12C renal) was over 100 µM, the GI50 (U251 CNS) was 5.08 µM and the TGI (U251 CNS) was over 100 µM. The GI50 (KM12 colon) was 4.67 µM, the TGI (KM12 colon) was over 100 µM and the GI50 (SK-MEL-5 melanoma) was 4.27 µM. For the same compound, the TGI (SK-MEL-5 melanoma) was 69.4 µM, the GI50 (SNB-75 CNS) was 2.73 µM and the TGI (SNB-75 CNS) was 9.98 µM. It also gave a GI50 (K-562 leukemia) of 5.36 µM, a TGI (K-562 leukemia) of over 100 µM and a GI50 (DU-145 prostate) of 29.2 µM. The TGI (DU-145 prostate) was over 100 µM, the GI50 (UACC-257 melanoma) was 24.8 µM and the TGI (UACC-257 melanoma) was over 100 µM. It also gave a GI50 (OVCAR-5 ovarian) of over 100 µM, a TGI (OVCAR-5 ovarian) of over 100 µM and a GI50 (NCI-H460 lung) of 3.97 µM. The TGI (NCI-H460 lung) was over 100 µM, the GI50 (CCRF-CEM leukemia) was 8.05 µM and the TGI (CCRF-CEM leukemia) was over 100 µM.
